Experiments:
[1] = tested on: arachidonic acid-induced ear swelling; assay: topical arachidonic acid-induced ear swelling model in mice; type: in vivo, Male ICR mice; details: inhibition of ear swelling vs vehicle, measured at 90 minutes after arachidonic acid application; topical application 30 min before and 15 min after arachidonic acid; indomethacin 14 mM (0.1 mg/20 µL, n=5), test compound 375 mM (1.0 mg/20 µL, n=10); P <0.001
Description: 3-Benzylsulfonylpropionitrile, prepared from Example 1, was used in this experiment.
The test compound, indomethacin (positive control), and vehicle were evaluated for anti-inflammatory activity in a topical arachidonic acid-induced ear swelling model in mice.
Male ICR mice weighing 22 ± 2 g were used and randomly divided; the test compound and vehicle control had 10 mice, and indomethacin had 5 mice. Arachidonic Acid (0.5 mg in 20 µl of acetone:ethanol/1:1) was applied topically to the anterior and posterior surfaces of the right ear of each mice. Test substances and vehicle, as listed in Table 1 were similarly applied 30 min before and 15 min after arachidonic acid application. The thickness of the right ear and the left ear was measured and the difference calculated as an indication of the inflammation in the right ear. Ear swelling was measured by a Dyer model micrometer gauge at 60 and 90 minutes after arachidonic acid application as an index of inflammation. Percent inhibition was calculated according to the formula: Ic - It/Ic x 100, where Ic and It refers to increase of ear thickness (mm) in control and treated mice, respectively. ANOVA and Dunnett's test were employed to ascertain significant difference between vehicle control and treated groups. Significance is set at P<0.05 level.

[2] = tested on: tail flick reaction to heat; assay: tail flick test in mice (49°C water bath); type: in vivo
Description: The tail flick test is a test of the pain response in animals. The tail flick test is used in basic pain research and to measure the effectiveness of analgesics, by observing the tail flick reaction to heat in an animal. This test assesses the nociceptive response to a local pain stimulus, and the ability of a drug to inhibit this response. […] The test compound was administered at a dosage of 500 mg/kg in DMSO. […] Each group had 10 mice. The response of mice to heat stimulus was evaluated by measuring the time of tail-flick or tail-flick latency from 49°C water bath. Briefly, the animal was held with its tail hanging down. Approximately 2 inches of the tail was immersed in a beaker of water at 38±1 °C for about 30 seconds, and this was done twice to acclimate the animal to the procedure. Subsequently, approximately 2 inches of the tail was immersed in a beaker of water at 49±1°C, at which point a timer was started. […] An ANOVA was done, and if p<0.05, a Dunnett's t test was employed to calculate significant difference between vehicle control and test compound treated groups. […] Results of tail flick response from each group are calculated as mean ± SEM (standard error of mean).

Structure (SMILES) | % Inhibition [1] [%] | tail flick latency compared with vehicle-treated mice ([2]; 500 mg/kg in DMSO, oral gavage, measured at 30, 60 and 120 minutes post dosing, n=10, significance p<0.05) | tail flick latency compared with vehicle-treated mice ([2]; mouse, in vivo)
N#CCCS(=O)(=O)Cc1ccccc1 [3-Benzylsulfonylpropionitrile, 3-benzylsulfonylpropionitrile] | 35 | statistically significant tail flick latency at 30, 60, and 120 minutes | –
CN1CC[C@]23c4c5ccc(O)c4O[C@H]2[C@@H](O)C=C[C@H]3[C@H]1C5 [morphine, reference compound] | – | – | statistically significant tail flick latency at 30 and 60 minutes, but not 120 minutes
